Measurements from patent US20230393140A1, “BINDING ASSAYS INVOLVING A PLURALITY OF SYNTHETIC COMPOUNDS, TARGETS, AND COUNTER TARGETS” (SRI International, priority 2020, published 2023).
Numbered stars: 1 amine (or outer) side, 2 acyl side, 3 side chain; on linkers, the order of the positions; unused ones are H or OH. Square brackets hold non-standard residues; d marks the D form. Peptide text beside a SMILES is read from it. * marks the point of attachment. 5FAM = O=C1OC2(c3ccc(O)cc3Oc3cc(O)ccc32)c2ccc(C(=O)*)cc21; NHCH2C6H4(4-CH2CONH2) = NC(=O)Cc1ccc(CN*)cc1; X1 = O=C(Cc1ccc(CN[*:1])cc1)[*:2]

Biological target: TNFα (Homo sapiens, UniProt P01375)
Sequence (P01375 77-233 limits assumed): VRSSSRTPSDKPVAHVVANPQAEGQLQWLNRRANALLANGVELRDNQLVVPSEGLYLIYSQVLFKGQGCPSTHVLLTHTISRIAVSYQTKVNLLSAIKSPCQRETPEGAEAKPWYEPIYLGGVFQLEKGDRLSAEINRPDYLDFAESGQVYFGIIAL
Experiment: MST binding affinity of resynthesized NNP hits to TNFα
Design: purchased R&D Systems, Inc. 210-TA/CF
Settings: read-out: KD (nM) [95% conf. int], NNP2 library hit, target TNFα, one-site binding model
Procedure: Hit binding affinity to various targets were determined using Microscale Thermophoresis (MST). MST experiments were performed on a Monolith NT.115pico (NanoTemper Technologies GmbH, Munich, Germany). Measurements were performed at room temperature, in triplicate with incubation periods of 15, 30 and 45 minutes. […] Targets were labeled using Nanotemper Monolith 2nd Generation Protein Labeling Kits. RED-MALEIMIDE (Maleimide-647-dye) labeling kit was used for K-Ras and RED-NHS (NHS-647-dye) labeling kit was used for IL-6, IL-6R, TNFα and ASGPR. The buffer for the ASGPR contained 20 mM HEPES pH 7.4, 150 mM NaCl, 10 mM MgCl2, 2 mM CaCl2, 0.05% Pluronic F-127, and 1 mM DTT; for IL-6 contained 20 mM HEPES pH 7.4, 150 mM KCl, 10 mM MgCl2, and 0.1% Pluronic F-127; for the soluble IL-6 receptor 20 mM HEPES pH 7.4, 150 mM NaCl, 10 mM MgCl2, and 0.05% Tween-20; for K-Ras 20 mM HEPES pH 7.4, 150 mM NaCl, 10 mM MgCl2, 0.05% Tween-20 and 1 mM DTT; for TNFα 10 mM HEPES pH 7.4, 150 mM NaCl, 10 mM MgCl2, 0.05% Polysorbate-20. Triplicate data was analyzed using MO.AffinityAnalysis software (NanoTemper Technologies GmbH).

| SMILES | Kd |
| --- | --- |
| CC(C)C[C@H](NC(=O)[C@@H](CCCNC(=N)N)NC(=O)[C@@H](CC(C)C)NC(=O)Cc1ccc(CNC(=O)[C@H](CC(C)C)NC(=O)[C@H](NC(=O)[C@@H](CCCCN)NC(=O)c2ccc3c(c2)C(=O)OC32c3ccc(O)cc3Oc3cc(O)ccc32)C(C)C)cc1)C(=O)NCc1ccc(CC(=O)N[C@H](CCCNC(=N)N)C(=O)N[C@@H](C(=O)N[C@@H](CC(C)C)C(=O)NCc2ccc(CC(=O)N[C@H](Cc3ccccc3)C(=O)N[C@H](CCCNC(=N)N)C(=O)N[C@@H](C)C(=O)NCc3ccc(CC(=O)N[C@H](C)C(=O)N[C@H](CCCCN)C(=O)N[C@@H](Cc4ccccc4)C(=O)NCc4ccc(CC(=O)N[C@H](CC(N)=O)C(=O)N[C@H](CCCNC(=N)N)C(=O)N[C@@H](Cc5ccccc5)C(=O)NCc5ccc(CC(=O)N6CCC[C@@H]6C(=O)N[C@@H](C(=O)NCC(=O)NCc6ccc(CC(=O)N[C@H](CCC(=O)O)C(=O)N[C@H](CCCNC(=N)N)C(=O)N[C@H](C(=O)NCc7ccc(CC(=O)N[C@H](Cc8ccc(O)cc8)C(=O)N[C@H](CCCNC(=N)N)C(=O)N[C@@H](Cc8ccccc8)C(=O)NCc8ccc(CC(N)=O)cc8)cc7)C(C)C)cc6)C(C)C)cc5)cc4)cc3)cc2)C(C)C)cc1 [TNF-39-1] (5FAM-[dK][dV]L[X1][dL][dR]L[X1][dR][dV]L[X1][dF][dR]A[X1][dA][dK]F[X1][dN][dR]F[X1][dP][dV]G[X1][dE][dR]V[X1][dY][dR]F-{NHCH2C6H4(4-CH2CONH2)}) | 116 nM |
| CC(C)C[C@H](NC(=O)[C@@H](CCCNC(=N)N)NC(=O)CNC(=O)Cc1ccc(CNC(=O)[C@H](CC(C)C)NC(=O)[C@@H](CC(C)C)NC(=O)[C@@H](Cc2ccc(O)cc2)NC(=O)c2ccc3c(c2)C(=O)OC32c3ccc(O)cc3Oc3cc(O)ccc32)cc1)C(=O)NCc1ccc(CC(=O)N[C@H](Cc2ccccc2)C(=O)N[C@H](CCC(=O)O)C(=O)N[C@H](C(=O)NCc2ccc(CC(=O)N[C@H](Cc3c[nH]c4ccccc34)C(=O)N[C@H](CCCNC(=N)N)C(=O)N[C@@H](CC(C)C)C(=O)NCc3ccc(CC(=O)N[C@H](Cc4c[nH]c5ccccc45)C(=O)N[C@H](CCCNC(=N)N)C(=O)N[C@H](C(=O)NCc4ccc(CC(=O)N[C@H](CCCNC(=N)N)C(=O)N[C@H](Cc5ccc(O)cc5)C(=O)N[C@@H](CC(C)C)C(=O)NCc5ccc(CC(=O)N6CCC[C@@H]6C(=O)NCC(=O)N[C@H](C(=O)NCc6ccc(CC(=O)N[C@H](Cc7c[nH]cn7)C(=O)N[C@H](CO)C(=O)N[C@@H](CC(C)C)C(=O)NCc7ccc(CC(=O)N[C@H](Cc8ccccc8)C(=O)N[C@H](CCCCN)C(=O)NCC(=O)NCc8ccc(CC(N)=O)cc8)cc7)cc6)C(C)C)cc5)cc4)C(C)C)cc3)cc2)C(C)C)cc1 [TNF-39-2] (5FAM-[dY][dL]L[X1]G[dR]L[X1][dF][dE]V[X1][dW][dR]L[X1][dW][dR]V[X1][dR][dY]L[X1][dP]GV[X1][dH][dS]L[X1][dF][dK]G-{NHCH2C6H4(4-CH2CONH2)}) | 200 nM |
| CC(C)C[C@H](NC(=O)[C@@H](CCCCN)NC(=O)[C@@H](Cc1c[nH]c2ccccc12)NC(=O)Cc1ccc(CNC(=O)[C@@H](NC(=O)CNC(=O)[C@H]2CCCN2C(=O)Cc2ccc(CNC(=O)[C@H](CC(C)C)NC(=O)[C@@H](Cc3ccc(O)cc3)NC(=O)[C@@H](CCCNC(=N)N)NC(=O)Cc3ccc(CNC(=O)[C@H](Cc4ccccc4)NC(=O)[C@@H](CCCCN)NC(=O)[C@@H](C)NC(=O)Cc4ccc(CNC(=O)[C@H](C)NC(=O)[C@@H](CCCNC(=N)N)NC(=O)[C@@H](Cc5ccccc5)NC(=O)Cc5ccc(CNC(=O)[C@@H](NC(=O)[C@@H](CCC(=O)O)NC(=O)[C@@H](Cc6ccccc6)NC(=O)Cc6ccc(CNC(=O)[C@H](CC(C)C)NC(=O)[C@@H](CCCNC(=N)N)NC(=O)[C@@H](CC(C)C)NC(=O)Cc7ccc(CNC(=O)[C@H](Cc8ccccc8)NC(=O)[C@@H](CC(C)C)NC(=O)[C@H](NC(=O)c8ccc9c(c8)C(=O)OC98c9ccc(O)cc9Oc9cc(O)ccc98)[C@H](C)O)cc7)cc6)C(C)C)cc5)cc4)cc3)cc2)C(C)C)cc1)C(=O)NCc1ccc(CC(=O)N[C@H](Cc2ccc(O)cc2)C(=O)N[C@H](CCCNC(=N)N)C(=O)N[C@@H](Cc2ccccc2)C(=O)NCc2ccc(CC(N)=O)cc2)cc1 [TNF-39-3] (5FAM-[dT][dL]F[X1][dL][dR]L[X1][dF][dE]V[X1][dF][dR]A[X1][dA][dK]F[X1][dR][dY]L[X1][dP]GV[X1][dW][dK]L[X1][dY][dR]F-{NHCH2C6H4(4-CH2CONH2)}) | 130 nM |
| CC(C)C[C@H](NC(=O)[C@@H](CCC(=O)O)NC(=O)[C@H]1CCCN1C(=O)Cc1ccc(CNC(=O)[C@H](CC(C)C)NC(=O)[C@@H](CCCCN)NC(=O)[C@@H](Cc2ccccc2)NC(=O)Cc2ccc(CNC(=O)[C@@H](NC(=O)[C@@H](CCC(=O)O)NC(=O)[C@@H](Cc3ccccc3)NC(=O)Cc3ccc(CNC(=O)[C@H](CC(C)C)NC(=O)[C@@H](CCCNC(=N)N)NC(=O)[C@@H](CC(C)C)NC(=O)Cc4ccc(CNC(=O)[C@H](Cc5ccccc5)NC(=O)[C@@H](CC(C)C)NC(=O)[C@H](NC(=O)c5ccc6c(c5)C(=O)OC65c6ccc(O)cc6Oc6cc(O)ccc65)[C@H](C)O)cc4)cc3)C(C)C)cc2)cc1)C(=O)NCc1ccc(CC(=O)N2CCC[C@@H]2C(=O)N[C@H](CCC(=O)O)C(=O)N[C@@H](Cc2ccccc2)C(=O)NCc2ccc(CC(=O)N[C@H](Cc3c[nH]cn3)C(=O)N[C@H](CCC(=O)O)C(=O)N[C@@H](CC(C)C)C(=O)NCc3ccc(CC(=O)N4CCC[C@@H]4C(=O)N[C@H](CCCNC(=N)N)C(=O)N[C@@H](C)C(=O)NCc4ccc(CC(=O)N[C@H](Cc5c[nH]cn5)C(=O)N[C@H](Cc5ccc(O)cc5)C(=O)N[C@H](C(=O)NCc5ccc(CC(N)=O)cc5)C(C)C)cc4)cc3)cc2)cc1 [TNF-39-4] (5FAM-[dT][dL]F[X1][dL][dR]L[X1][dF][dE]V[X1][dF][dK]L[X1][dP][dE]L[X1][dP][dE]F[X1][dH][dE]L[X1][dP][dR]A[X1][dH][dY]V-{NHCH2C6H4(4-CH2CONH2)}) | 28 nM |
| CC(C)C[C@H](NC(=O)[C@@H](CCCNC(=N)N)NC(=O)[C@@H](CC(C)C)NC(=O)Cc1ccc(CNC(=O)[C@H](CC(C)C)NC(=O)[C@H](NC(=O)[C@@H](CCCCN)NC(=O)c2ccc3c(c2)C(=O)OC32c3ccc(O)cc3Oc3cc(O)ccc32)C(C)C)cc1)C(=O)NCc1ccc(CC(=O)N[C@H](Cc2ccccc2)C(=O)N[C@H](CCC(=O)O)C(=O)N[C@H](C(=O)NCc2ccc(CC(=O)N[C@H](Cc3ccccc3)C(=O)N[C@H](CCCNC(=N)N)C(=O)N[C@@H](C)C(=O)NCc3ccc(CC(=O)N[C@H](Cc4ccc(O)cc4)C(=O)N[C@H](CCCCN)C(=O)N[C@@H](C)C(=O)NCc4ccc(CC(=O)N[C@H](CCC(=O)O)C(=O)N[C@H](CO)C(=O)N[C@H](C(=O)NCc5ccc(CC(=O)N6CCC[C@@H]6C(=O)N[C@@H](C(=O)NCC(=O)NCc6ccc(CC(=O)N7CCC[C@@H]7C(=O)N[C@H](CCCNC(=N)N)C(=O)N[C@@H](C)C(=O)NCc7ccc(CC(=O)N[C@H](Cc8ccccc8)C(=O)N[C@H](CCCCN)C(=O)NCC(=O)NCc8ccc(CC(N)=O)cc8)cc7)cc6)C(C)C)cc5)C(C)C)cc4)cc3)cc2)C(C)C)cc1 [TNF-39-5] (5FAM-[dK][dV]L[X1][dL][dR]L[X1][dF][dE]V[X1][dF][dR]A[X1][dY][dK]A[X1][dE][dS]V[X1][dP][dV]G[X1][dP][dR]A[X1][dF][dK]G-{NHCH2C6H4(4-CH2CONH2)}) | 23 nM |
| CC(C)C[C@H](NC(=O)[C@@H](CCCNC(=N)N)NC(=O)[C@@H](CC(C)C)NC(=O)Cc1ccc(CNC(=O)[C@H](CC(C)C)NC(=O)[C@@H](CC(C)C)NC(=O)[C@@H](Cc2ccc(O)cc2)NC(=O)c2ccc3c(c2)C(=O)OC32c3ccc(O)cc3Oc3cc(O)ccc32)cc1)C(=O)NCc1ccc(CC(=O)N[C@H](Cc2ccccc2)C(=O)N[C@H](CCC(=O)O)C(=O)N[C@H](C(=O)NCc2ccc(CC(=O)N3CCC[C@@H]3C(=O)N[C@H](CCCNC(=N)N)C(=O)N[C@H](C(=O)NCc3ccc(CC(=O)N[C@H](Cc4c[nH]c5ccccc45)C(=O)N[C@H](CCCNC(=N)N)C(=O)N[C@H](C(=O)NCc4ccc(CC(=O)N[C@H](CCCNC(=N)N)C(=O)N[C@H](Cc5ccc(O)cc5)C(=O)N[C@@H](CC(C)C)C(=O)NCc5ccc(CC(=O)N[C@H](CCC(=O)O)C(=O)N[C@@H](C(=O)N[C@H](C(=O)NCc6ccc(CC(=O)N[C@@H](C(=O)N[C@H](Cc7c[nH]cn7)C(=O)N[C@@H](CC(C)C)C(=O)NCc7ccc(CC(=O)N[C@H](Cc8ccc(O)cc8)C(=O)N[C@H](CCCNC(=N)N)C(=O)N[C@@H](Cc8ccccc8)C(=O)NCc8ccc(CC(N)=O)cc8)cc7)[C@H](C)O)cc6)C(C)C)C(C)C)cc5)cc4)C(C)C)cc3)C(C)C)cc2)C(C)C)cc1 [TNF-39-6] (5FAM-[dY][dL]L[X1][dL][dR]L[X1][dF][dE]V[X1][dP][dR]V[X1][dW][dR]V[X1][dR][dY]L[X1][dE][dV]V[X1][dT][dH]L[X1][dY][dR]F-{NHCH2C6H4(4-CH2CONH2)}) | 93 nM |
